According to article PMC8879107, “A3 Adenosine Receptor Antagonists with Nucleoside Structures and Their Anticancer Activity” (Pharmaceuticals, 2022):
Entries after “also recorded” stand apart in the source; their conditions may differ. Read-outs that look alike come from different tables or passages of the source.

Assays:
human recombinant A1AR [1] = target: T1, human recombinant A1AR (Homo sapiens, UniProt P30542); test: Radioligand binding assay, displacement of [3H]CCPA in CHO cell membranes; details: mean ± S.E., n = 3-5, read-out: hA1R (Ki nM)
T1 sequence (P30542 1-326): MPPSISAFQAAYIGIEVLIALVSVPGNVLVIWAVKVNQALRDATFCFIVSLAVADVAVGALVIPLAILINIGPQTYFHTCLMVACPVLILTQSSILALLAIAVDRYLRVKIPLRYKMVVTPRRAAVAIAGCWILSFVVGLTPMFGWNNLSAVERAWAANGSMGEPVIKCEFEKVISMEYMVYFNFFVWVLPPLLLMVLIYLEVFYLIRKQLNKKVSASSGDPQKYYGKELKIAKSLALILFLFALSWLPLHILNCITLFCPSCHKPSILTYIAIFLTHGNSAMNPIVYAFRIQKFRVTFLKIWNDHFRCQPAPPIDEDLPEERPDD
Description: (§1) [^3H]CCPA (2-chloro-N^6-cyclopentylAdo), [^3H]NECA (5′-N-ethylcarboxamidoAdo), and [^3H]HEMADO (2-hexynyl-N^6-methylAdo) were used as respective radioligands. The results are reported as Ki values in nM (± standard errors) (Table 1). In the case of A2BAR, the potency of selected compounds was determined through a functional GloSensor cAMP assay.
(§2) All pharmacological methods followed the procedures as described earlier. In brief, membranes for radioligand binding were prepared from CHO cells stably transfected with human adenosine receptor subtypes through two centrifugations at different speeds. The first low-speed (1000 g) centrifugation allowed the removing of cell fragments and nuclei, while the second, performed at high speed (100,000 g), allowed the precipitation of the crude membrane fractions.
(§3) The binding affinity of the novel compounds was evaluated using radioligand competition experiments in CHO cells stably expressing hA1AR, hA2AAR, and hA3AR subtypes. […] Results were expressed as Ki values (dissociation constants), which were calculated with the program GraphPad (GraphPAD Software, San Diego, CA, USA). Each concentration was tested three–five times in duplicate and the values are given as the mean ± standard error (S.E.).

human recombinant A2AAR [2] = target: T2, human recombinant A2AAR (Homo sapiens, UniProt P29274); test: Radioligand binding assay, displacement of [3H]NECA in CHO cell membranes; details: mean ± S.E., n = 3-5, read-out: hA2AR (Ki nM)
T2 sequence (P29274 whole entry): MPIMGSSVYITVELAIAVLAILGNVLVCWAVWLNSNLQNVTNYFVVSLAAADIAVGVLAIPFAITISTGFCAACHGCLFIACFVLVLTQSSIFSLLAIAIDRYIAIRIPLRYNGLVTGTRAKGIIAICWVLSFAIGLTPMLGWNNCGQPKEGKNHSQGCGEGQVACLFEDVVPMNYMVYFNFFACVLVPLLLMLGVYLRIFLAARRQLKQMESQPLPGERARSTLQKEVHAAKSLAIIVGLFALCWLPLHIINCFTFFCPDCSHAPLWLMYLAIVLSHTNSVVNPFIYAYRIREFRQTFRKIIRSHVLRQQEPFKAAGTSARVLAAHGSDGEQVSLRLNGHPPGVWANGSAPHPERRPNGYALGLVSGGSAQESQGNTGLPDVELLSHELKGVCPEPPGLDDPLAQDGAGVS
Description: as §1, §2, §3

human A3AR [3] = target: T3, human A3AR (Homo sapiens, UniProt P0DMS8); test: Radioligand binding assay, displacement of [3H]HEMADO in CHO cell membranes; details: for A1/A3: A3AR selectivity vs A1AR; for A1/A3 / A2A/A3: ratio of Ki values; for A2A/A3: A3AR selectivity vs A2AAR; for Ki: [3H]HEMADO, CHO membranes, mean ± S.E., n = 3-5, read-out: hA3R (Ki nM)
T3 sequence (P0DMS8 1-318): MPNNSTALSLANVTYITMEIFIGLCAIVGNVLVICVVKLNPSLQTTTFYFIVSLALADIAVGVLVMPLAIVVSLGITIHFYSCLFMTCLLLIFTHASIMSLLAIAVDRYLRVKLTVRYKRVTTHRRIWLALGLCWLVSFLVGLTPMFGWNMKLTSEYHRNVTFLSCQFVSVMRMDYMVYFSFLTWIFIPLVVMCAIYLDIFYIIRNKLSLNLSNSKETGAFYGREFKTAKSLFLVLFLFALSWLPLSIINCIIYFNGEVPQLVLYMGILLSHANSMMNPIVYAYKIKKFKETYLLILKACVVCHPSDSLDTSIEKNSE
Description: In the case of A2BAR, the potency of selected compounds was determined through a functional GloSensor cAMP assay.
as §2, §3

[4] = system: PC3 prostate cancer cell line; test: Sulforhodamine B (SRB) cell growth inhibition assay; details: for GI50 / CC50 / IC100: Homo sapiens, 48 h; for CC50: read-out: LC50 (μM); for IC100: read-out: TGI (μM); for TGI: PC3, 48 h, concentration to inhibit 100% of cell growth, mean ± SD
[5] = system: human prostate (PC3), colon (Caco-2) and hepatocyte (Hep G2) carcinomas; design: method as in PMID 29763615; details: all three tumor cell lines PC3, Caco-2, Hep G2; cited from earlier work
[6] = system: hepatocellular carcinoma and moderate hepatic dysfunction; design: method as in PMID 33430312; details: cited from earlier work
human recombinant A1AR [7] = target: T1, human recombinant A1AR; details: [3H]CCPA, CHO membranes; read-out: hA1R (Ki nM); cited from earlier work
human recombinant A2AAR [8] = target: T2, human recombinant A2AAR; details: [3H]NECA, CHO membranes; read-out: hA2AR (Ki nM); cited from earlier work
human A3AR [9] = target: T3, human A3AR; details: cited from earlier work
human A3AR [10] = target: T3, human A3AR; test: GloSensor cAMP accumulation assay (agonism/antagonism) at A3AR in CHO cells; format: cell-based; design: expressed in transfected cells; host or cells: CHO cells stably expressing A3AR and the GloSensor biosensor plasmid; details: for IC50: antagonism: counteracting agonist (NECA 1 μM) induced decrease of cAMP, forskolin 10 μM, mean ± S.E.; for functional behaviour at A3AR (agonist/antagonist): forskolin 10 µM stimulated cAMP, compared to Cl-IB-MECA
Description: CHO cells stable expressing A2B or A3ARs and the plasmid encoding the biosensor were used to study functional agonism and antagonism of understudy ligands. The desired cell number was incubated in equilibration medium containing a 3% v/v GloSensor cAMP reagent stock solution, 10% FBS and 87% of CO2 independent media. After 2 h of incubation, cells were dispensed in wells of 384 well plate and when a steady-state basal signal was obtained the agonism profile was studied, adding to wells the reference agonist NECA or compounds at different concentrations. In the case of the Gi coupled receptor A3AR Forskolin (FSK) 10 μM was added 10 min after the agonists and various luminescence readings were performed at different incubation times.
The antagonist profile of the compounds was evaluated by assessing their ability to counteract an agonist-induced increase or decrease (A2B and A3ARs, respectively) of cAMP accumulation. The cells were incubated with different antagonist concentrations and then treated with a fixed dose of NECA (10 μM for A2BAR and 1 μM for A3AR). FSK 10 μM was added 10 min after the agonists and various luminescence reads were performed at different incubation times.
Responses were expressed as percentage of the maximal relative luminescence units (RLU) and concentration–response curves were fitted by a nonlinear regression with the Prism program (GraphPAD Software, San Diego, CA, USA). The agonist or antagonist profile of compounds was expressed as EC50 or IC50, respectively. Each concentration was tested three–five times in duplicate and the values are given as the mean ± S.E.

[11] = A3AR affinity repeated in Table 2, read-out: A3AR
[12] = [3H]HEMADO, CHO membranes, read-out: hA3R (Ki nM)

| Structure (SMILES) | Ki (human recombinant A1AR [1]) [nM] | Ki (human recombinant A2AAR [2]) [nM] | A1/A3 (human A3AR [3]) [fold] | A2A/A3 (human A3AR [3]) | Ki (human A3AR [3]) [nM] | GI50 [4] [µM] | CC50 [4] [µM] | IC100 [4] [µM] | TGI [4] [µM] | anticancer effect (cell growth inhibition) [5] | primary end-point of phase II trial [6] | safety profile in phase II trial [6] | Ki (human recombinant A1AR [7]) [nM] | Ki (human recombinant A2AAR [8]) [nM] | Ki (human A3AR [9]; [11]) [nM] | Ki (human A3AR [9]; [12]) [nM] | IC50 (human A3AR [10]) [nM] | functional behaviour at A3AR (agonist/antagonist) (human A3AR [10]) | cytotoxic activity ([4]; PC3, at concentrations up to 500 µM) | EC50 (human A3AR [10]) [nM] |
| --- | --- | --- | --- | --- | --- | --- | --- | --- | --- | --- | --- | --- | --- | --- | --- | --- | --- | --- | --- | --- |
| OC[C@H]1O[C@@H](n2cnc3c(NCCc4ccccc4)nc(SCCc4ccccc4)nc32)[C@H](O)[C@@H]1O [Compound 13, N^6-(2-Phenylethyl)-2-phenylethylthioadenosine] | 263 ± 19 | 3360 ± 752 | 9 | 112 fold | 30 ± 7.1 | 41 ± 4.2 | > 500 | > 500 | >500 | – | – | – | – | – | – | – | – | – | – | – |
| CNC(=O)[C@H]1O[C@@H](n2cnc3c(NCc4cccc(I)c4)nc(Cl)nc32)[C@H](O)[C@@H]1O [Cl-IB-MECA, 2-chloro-N^6-(3-iodobenzyl)adenosine-5′-N-methyluronamide, reference compound] | – | – | – | – | – | 18 ± 0.4 | – | 44 | 44 ± 3.3 | good anticancer effect | did not meet its primary end-point | favorable safety profile | – | – | – | – | – | – | – | – |
| CCCCC#Cc1nc(NCC(c2ccccc2)c2ccccc2)c2ncn([C@@H]3O[C@H](CO)[C@@H](O)[C@H]3O)c2n1 [Compound 4, 2-Hexynyl-N^6-(2,2-diphenylethyl)adenosine] | – | – | 36 | 6 fold | – | 16 ± 0.5 | 80 ± 9.8 | 35 | 35 ± 1.5 | very good antitumor activity | – | – | 984 | 153 | 27 | 27 | 380 ± 80 | antagonists | – | – |
| CCCCC#Cc1nc(NCCc2ccccc2)c2ncn([C@@H]3O[C@H](CO)[C@@H](O)[C@H]3O)c2n1 [Compound 10, 2-Hexynyl-N^6-(2-phenylethyl)adenosine] | 129 ± 8.2 | 146 ± 48 | 86 | 97 fold | 1.5 ± 0.3 | 13 ± 1.6 | 452 ± 10.5 | 77 | 77 ± 2.9 | – | – | – | – | – | – | – | 31 ± 6 | antagonists | – | – |
| OC[C@H]1O[C@@H](n2cnc3c(NCC(c4ccccc4)c4ccccc4)nc(Cl)nc32)[C@H](O)[C@@H]1O [Compound 16, 2-Chloro-N^6-(2,2-diphenylethyl)-adenosine] | 0.76 ± 0.2 | 266 ± 35 | 6 | 2046 fold | 0.13 ± 0.01 | 35 ± 3.1 | 253 ± 11.5 | 94 | 94 ± 4.1 | – | – | – | – | – | – | – | – | – | – | – |
| OC[C@H]1O[C@@H](n2cnc3c(NCCc4ccccc4)nc(Cl)nc32)[C@H](O)[C@@H]1O [Compound 15, 2-Chloro-N^6-(2-phenylethyl)adenosine] | 1.64 ± 0.37 | 660 ± 129 | 68 | 27,500 fold | 0.024 ± 0.005 | 51 ± 5.2 | > 500 | 262 | 262 ± 8.3 | – | – | – | – | – | – | – | – | full A3AR agonist; also recorded: A3AR full agonists | no cytotoxic activity | 14 ± 3.4 |
| OC[C@H]1O[C@@H](n2cnc3c(NCCc4ccccc4)nc(I)nc32)[C@H](O)[C@@H]1O [Compound 8, 2-Iodo-N^6-(2-phenylethyl)adenosine] | 144 ± 32 | 4120 ± 998 | 29 | 824 fold | 5 ± 1.2 | 42 ± 2.7 | 301 ± 13.4 | 113 | 113 ± 6.7 | – | – | – | – | – | – | – | – | – | – | – |
| OC[C@H]1O[C@@H](n2cnc3c(NCCc4ccccc4)nc(NCCc4ccccc4)nc32)[C@H](O)[C@@H]1O [Compound 5, 2-Phenylethylamino-N^6-(2-phenylethyl)adenosine] | – | – | 1082 | 4145 fold | – | 237 ± 9.4 | > 500 | > 500 | >500 | very good antitumor activity | – | – | 357 | 1370 | 0.33 | 0.33 | – | – | – | – |
| OC[C@H]1O[C@@H](n2cnc3c(NCCc4ccccc4)nc(C#Cc4ccccc4)nc32)[C@H](O)[C@@H]1O [Compound 11, 2-Phenylethynyl-N^6-(2-phenethyl)adenosine] | 809 ± 117 | 2980 ± 271 | 213 | 785 fold | 3.8 ± 0.6 | 2.5 ± 0.8 | 151 ± 8.9 | 19 | 19 ± 6.1 | – | – | – | – | – | – | – | 79 ± 15 | antagonists | – | – |
| OC[C@H]1O[C@@H](n2cnc3c(NCC(c4ccccc4)c4ccccc4)nc(I)nc32)[C@H](O)[C@@H]1O [Compound 9, 2-Iodo-N^6-(2,2-diphenylethyl)adenosine] | 182 ± 25.4 | 1240 ± 253 | 17 | 113 fold | 11 ± 1.8 | 24 ± 1.2 | 94 ± 3.5 | 48 | 48 ± 3.5 | – | – | – | – | – | – | – | – | – | – | – |
| OC[C@H]1O[C@@H](n2cnc3c(NCC(c4ccccc4)c4ccccc4)nc(C#Cc4ccccc4)nc32)[C@H](O)[C@@H]1O [Compound 12, N^6-(2,2-Diphenylethyl)-2-phenylethynyladenosine] | 211 ± 53 | 450 ± 84 | 2 | 4 fold | 106 ± 25 | 14 ± 0.9 | 59 ± 10.1 | 29 | 29 ± 4.9 | – | – | – | – | – | – | – | 153 ± 12 | antagonists | – | – |
